Laboratory results taken from the NIST ThermoML archive (doi:10.1016/j.jct.2007.07.002).

Conditions: Gas, double Helmholtz acoustic resonator

[C-]#[O+] [carbon monoxide]
Conditions | kinematic viscosity [m2/s] | speed of sound [m/s]
225 K, 250.04 kPa | 3.74e-06 | 305.59
225 K, 371.9 kPa | 2.5e-06 | 305.42
225 K, 499.99 kPa | 1.86e-06 | 305.4
225 K, 560.56 kPa | 1.68e-06 | 305.34
225 K, 743.07 kPa | 1.25e-06 | 305.24
225 K, 750 kPa | 1.23e-06 | 305.26
225 K, 934.61 kPa | 1e-06 | 305.14
225 K, 1000 kPa | 9.4e-07 | 305.15
225 K, 1141.5 kPa | 8.17e-07 | 305.06
225 K, 1250 kPa | 7.36e-07 | 305.04
225 K, 1345.6 kPa | 6.95e-07 | 304.99
225 K, 1500 kPa | 6.19e-07 | 304.99
225 K, 1581.5 kPa | 5.88e-07 | 304.94
225 K, 1750 kPa | 5.32e-07 | 304.95
225 K, 1787.1 kPa | 5.2e-07 | 304.91
225 K, 2000 kPa | 4.66e-07 | 304.94
225 K, 2016.1 kPa | 4.63e-07 | 304.91
225 K, 2264 kPa | 4.14e-07 | 304.94
225 K, 2454.7 kPa | 3.79e-07 | 304.96
250 K, 221.65 kPa | 5.37e-06 | 322.56
250 K, 401.55 kPa | 2.88e-06 | 322.4
250 K, 587.83 kPa | 1.95e-06 | 322.43
250 K, 791.25 kPa | 1.45e-06 | 322.51
250 K, 982.55 kPa | 1.16e-06 | 322.58
250 K, 1169.1 kPa | 9.78e-07 | 322.67
250 K, 1392.3 kPa | 8.19e-07 | 322.79
250 K, 1587.8 kPa | 7.19e-07 | 322.93
250 K, 1808.2 kPa | 6.28e-07 | 323.08
250 K, 2050.1 kPa | 5.56e-07 | 323.27
250 K, 2241.5 kPa | 5.08e-07 | 323.44
275 K, 250.64 kPa | 5.04e-06 | 338.34
275 K, 286.53 kPa | 4.39e-06 | 338.19
275 K, 465.9 kPa | 2.83e-06 | 338.32
275 K, 500.41 kPa | 2.7e-06 | 338.48
275 K, 652.16 kPa | 2.07e-06 | 338.54
275 K, 750 kPa | 1.84e-06 | 338.76
275 K, 832.04 kPa | 1.63e-06 | 338.75
275 K, 1000 kPa | 1.37e-06 | 338.99
275 K, 1045.4 kPa | 1.3e-06 | 338.99
275 K, 1250 kPa | 1.11e-06 | 339.26
275 K, 1252.2 kPa | 1.09e-06 | 339.22
275 K, 1443.1 kPa | 9.45e-07 | 339.46
275 K, 1500 kPa | 9.2e-07 | 339.57
275 K, 1675 kPa | 8.12e-07 | 339.74
275 K, 1750 kPa | 7.89e-07 | 339.89
275 K, 1882.7 kPa | 7.23e-07 | 340.02
275 K, 2000 kPa | 6.96e-07 | 340.23
275 K, 2150.8 kPa | 6.33e-07 | 340.38
275 K, 2364.7 kPa | 5.79e-07 | 340.69
300 K, 252.56 kPa | 6.71e-06 | 353.44
300 K, 501.19 kPa | 3.25e-06 | 353.74
300 K, 709.53 kPa | 2.28e-06 | 354
300 K, 1000 kPa | 1.64e-06 | 354.52
300 K, 1178.1 kPa | 1.39e-06 | 354.78
300 K, 1250 kPa | 1.31e-06 | 354.91
300 K, 1374 kPa | 1.2e-06 | 355.09
300 K, 1481.5 kPa | 1.12e-06 | 355.27
300 K, 1500 kPa | 1.1e-06 | 355.32
300 K, 1602.1 kPa | 1.03e-06 | 355.46
300 K, 1730.3 kPa | 9.55e-07 | 355.67
300 K, 1750 kPa | 9.47e-07 | 355.74
300 K, 1868 kPa | 8.89e-07 | 355.91
300 K, 2000 kPa | 8.32e-07 | 356.15
300 K, 2005.3 kPa | 8.27e-07 | 356.15
325 K, 303.08 kPa | 5.93e-06 | 367.79
325 K, 515.56 kPa | 3.49e-06 | 368.11
325 K, 732.01 kPa | 2.49e-06 | 368.52
325 K, 943.23 kPa | 1.94e-06 | 368.91
325 K, 1169.7 kPa | 1.57e-06 | 369.33
325 K, 1401.2 kPa | 1.31e-06 | 369.77
325 K, 1633.9 kPa | 1.12e-06 | 370.22
325 K, 1908.7 kPa | 9.62e-07 | 370.77
325 K, 2129.6 kPa | 8.63e-07 | 371.22
325 K, 2413.1 kPa | 7.66e-07 | 371.82
350 K, 342.4 kPa | 6.04e-06 | 381.63
350 K, 544.1 kPa | 3.84e-06 | 382.06
350 K, 775.52 kPa | 2.69e-06 | 382.52
350 K, 1007.1 kPa | 2.06e-06 | 382.99
350 K, 1245.1 kPa | 1.68e-06 | 383.51
350 K, 1461.5 kPa | 1.43e-06 | 383.96
350 K, 1735.1 kPa | 1.21e-06 | 384.56
350 K, 1995.6 kPa | 1.05e-06 | 385.14
350 K, 2208.2 kPa | 9.51e-07 | 385.62
350 K, 2464.2 kPa | 8.55e-07 | 386.21
375 K, 260.28 kPa | 8.45e-06 | 394.36
375 K, 460.71 kPa | 4.99e-06 | 394.79
375 K, 672.43 kPa | 3.42e-06 | 395.31
375 K, 885.97 kPa | 2.63e-06 | 395.84
375 K, 1102.9 kPa | 2.13e-06 | 396.34
375 K, 1302.3 kPa | 1.81e-06 | 396.82
375 K, 1537.5 kPa | 1.53e-06 | 397.37
375 K, 1815.6 kPa | 1.3e-06 | 398.04
375 K, 2026.2 kPa | 1.16e-06 | 398.56
375 K, 2250.6 kPa | 1.05e-06 | 399.12
375 K, 2518.2 kPa | 9.4e-07 | 399.8

N [ammonia]
Conditions | kinematic viscosity [m2/s] | speed of sound [m/s]
300 K, 223.53 kPa | 6.47e-06 | 431
300 K, 259.87 kPa | 5.47e-06 | 429.55
300 K, 329.51 kPa | 4.32e-06 | 428.07
300 K, 361.99 kPa | 3.95e-06 | 426.77
300 K, 447.86 kPa | 3.14e-06 | 424.67
300 K, 465.77 kPa | 3.02e-06 | 423.73
300 K, 568.68 kPa | 2.45e-06 | 421.02
300 K, 569.79 kPa | 2.45e-06 | 420.63
300 K, 676.75 kPa | 2.03e-06 | 417.61
300 K, 692.8 kPa | 1.98e-06 | 416.7
300 K, 802.37 kPa | 1.71e-06 | 413.01
300 K, 802.82 kPa | 1.7e-06 | 413.38
315 K, 250.83 kPa | 6.41e-06 | 441.42
315 K, 378.83 kPa | 4.19e-06 | 438.52
315 K, 506.43 kPa | 3.08e-06 | 435.46
315 K, 661.04 kPa | 2.34e-06 | 431.69
315 K, 791.02 kPa | 1.92e-06 | 428.35
315 K, 938.74 kPa | 1.59e-06 | 424.43
315 K, 1080.9 kPa | 1.36e-06 | 420.46
315 K, 1285 kPa | 1.13e-06 | 414.39
330 K, 308.27 kPa | 5.77e-06 | 450.9
330 K, 473.84 kPa | 3.68e-06 | 447.68
330 K, 664.29 kPa | 2.58e-06 | 443.84
330 K, 822.59 kPa | 2.06e-06 | 440.54
330 K, 977.41 kPa | 1.71e-06 | 437.21
330 K, 1142.1 kPa | 1.44e-06 | 433.54
330 K, 1294.8 kPa | 1.25e-06 | 430.01
330 K, 1480.5 kPa | 1.08e-06 | 425.54
330 K, 1640.8 kPa | 9.57e-07 | 421.5
330 K, 1792 kPa | 8.66e-07 | 417.52
330 K, 1945.8 kPa | 7.91e-07 | 413.28
345 K, 297.74 kPa | 6.5e-06 | 461.31
345 K, 504.54 kPa | 3.78e-06 | 457.91
345 K, 708.88 kPa | 2.67e-06 | 454.47
345 K, 914.14 kPa | 2.04e-06 | 450.88
345 K, 1123.2 kPa | 1.64e-06 | 447.09
345 K, 1332.1 kPa | 1.36e-06 | 443.17
345 K, 1537 kPa | 1.16e-06 | 439.19
345 K, 1744.6 kPa | 1e-06 | 435.01
345 K, 1955.1 kPa | 8.8e-07 | 430.58
345 K, 2315.6 kPa | 7.21e-07 | 422.55
345 K, 2530 kPa | 6.5e-07 | 417.46
345 K, 2769 kPa | 5.84e-07 | 411.45
360 K, 242.7 kPa | 8.74e-06 | 471.71
360 K, 453.28 kPa | 4.68e-06 | 468.86
360 K, 661.35 kPa | 3.16e-06 | 465.91
360 K, 865.15 kPa | 2.39e-06 | 462.91
360 K, 1069.7 kPa | 1.9e-06 | 459.84
360 K, 1277.8 kPa | 1.57e-06 | 456.62
360 K, 1481.2 kPa | 1.34e-06 | 453.38
360 K, 1690.7 kPa | 1.16e-06 | 449.97
360 K, 1894.8 kPa | 1.02e-06 | 446.53
360 K, 2277.4 kPa | 8.28e-07 | 439.83
360 K, 2480.7 kPa | 7.49e-07 | 436.1
360 K, 2738.8 kPa | 6.66e-07 | 431.2
360 K, 3050.5 kPa | 5.85e-07 | 424.97
360 K, 3365.4 kPa | 5.19e-07 | 418.3
375 K, 260.57 kPa | 1.01e-05 | 480.64
375 K, 483.31 kPa | 4.9e-06 | 478.26
375 K, 684.74 kPa | 3.42e-06 | 475.65
375 K, 897.66 kPa | 2.57e-06 | 473
375 K, 1130.7 kPa | 1.96e-06 | 469.93
375 K, 1341.7 kPa | 1.63e-06 | 467.14
375 K, 1583.8 kPa | 1.37e-06 | 463.89
375 K, 1793.4 kPa | 1.2e-06 | 461.01
375 K, 2026.3 kPa | 1.04e-06 | 457.7
375 K, 2290.4 kPa | 9.12e-07 | 453.87
375 K, 2599.9 kPa | 7.94e-07 | 449.23
375 K, 2933.1 kPa | 6.9e-07 | 444.04
375 K, 3140.5 kPa | 6.38e-07 | 440.69
375 K, 3379.2 kPa | 5.88e-07 | 436.74
